Data taken from patent publication US11453674B2, “Heterocyclic compound, preparation method and use thereof in medicine” (SUZHOU SINOVENT PHARMACEUTICALS CO., LTD., priority 2019, dated 2022).

Target: T1, hURAT1 (Homo sapiens, UniProt Q96S37)
T1 construct: expressed in transfected cells
T1 sequence (Q96S37 1-553): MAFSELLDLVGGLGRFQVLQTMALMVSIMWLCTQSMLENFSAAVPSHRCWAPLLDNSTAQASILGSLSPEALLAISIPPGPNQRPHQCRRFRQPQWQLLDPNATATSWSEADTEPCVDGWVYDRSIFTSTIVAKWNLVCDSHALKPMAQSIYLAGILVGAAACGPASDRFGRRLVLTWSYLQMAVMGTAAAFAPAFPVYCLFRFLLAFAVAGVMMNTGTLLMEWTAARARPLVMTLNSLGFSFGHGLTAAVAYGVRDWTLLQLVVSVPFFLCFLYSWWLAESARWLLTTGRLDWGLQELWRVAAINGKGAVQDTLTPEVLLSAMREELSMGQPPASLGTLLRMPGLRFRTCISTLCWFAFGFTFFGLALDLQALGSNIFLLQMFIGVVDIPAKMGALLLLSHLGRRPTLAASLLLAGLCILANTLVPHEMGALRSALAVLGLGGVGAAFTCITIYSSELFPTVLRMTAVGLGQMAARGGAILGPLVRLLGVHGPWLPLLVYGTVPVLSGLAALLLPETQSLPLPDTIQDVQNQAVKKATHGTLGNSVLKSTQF
Assay: Inhibition of 14C-uric acid uptake by hURAT1 in HEK293-transfected cells
Assay type: cell-based
Conditions: HEK-293T cells stably expressing hURAT1, 14C-uric acid uptake, 5 min at 37° C.
Protocol: 1. Cell Culture and Inoculation
2) When the cells covered 80% of the culture medium, the culture medium was removed. The cells were washed with PBS once, followed by digestion with pancreatin-EDTA. After detachment, the cells were added with a culture medium, exfoliated by pipetting, and centrifuged for harvesting. The harvested cells were added with a culture medium and mixed well to give a cell suspension.
3) The cell density was adjusted to 3×10^5 cells/mL, transferred into a white-wall, clear-bottom, 96-well cell culture plate with 100 μL/well, and incubated for 12-24 h.
1) A 20 mM stock solution of the compound was prepared with DMSO. Then the stock solution was diluted to a starting concentration of 2 mM with DMSO.
2) The solution was serially 4-fold diluted with DMSO from […] to the 10th concentration on a 96-well plate serving as the 100× plate, and respective quality controls were prepared.
3) The solutions in corresponding wells were 10-fold diluted with Cl-free HBSS buffer on another 96-well plate serving as the 10× plate.
4) Buffer containing 0.1 μCi/mL ^14C-uric acid, at 45 μL/well, and a 10× diluted compound, at 5 μL/well, were added to a third 96-well plate serving as the 1× plate for later use. The concentration of DMSO was 1%.
3. Uptake of ^14C-Uric Acid in Cells Stably Expressing hURAT1
1) The uptake assay was performed after the cultivated cells in 96-well plates adhered.
2) The cells were washed once with pre-heated buffer at 200 μL/well.
3) After the wells were dried, corresponding compounds (50 μL/well) and 0.1 μCi/mL ^14C-uric acid were immediately added.
4) The plate with the compound was incubated in a 37° C. incubator for 5 min.
5) 150 μL of ice-cold buffer was added to each well to terminate the uptake. Each well was washed three times with buffer. The cells were carefully washed to avoid detachment.
6) 50 μL of lysis buffer was added to each well, prior to shaking at 900 rpm on an oscillator for 5 min.
7) 150 μL of scintillation solution (Microint 40) was added to each well before shaking at 900 rpm for 5 min.
8) Finally, the microwell plate was transferred to a MicroBeta Trilux (PerkinElmer Co. Ltd.) for detection.
The data were analyzed and the IC50 of the quality controls and all test compounds on the plates were calculated using XL-fit software.

| Structure (SMILES) | IC50 [nM] |
| --- | --- |
| CCc1nc2ncc(F)cn2c1C(=O)c1cc(Br)c(O)c(Br)c1 [Example 4, (3,5-dibromo-4-hydroxyphenyl)(2-ethyl-6-fluoroimidazo[1,2-a]pyrimidin-3-yl)methanone] | < 50 |
| CCn1nc2ccc(F)cc2c1C(=O)c1cc(Br)c(O)c(Br)c1 [Example 9, (3,5-dibromo-4-hydroxyphenyl)(2-ethyl-5-fluoro-2H-indazol-3-yl) methanone] | 50 to 200 |
| CCc1nc2ncc(F)cn2c1C(=O)c1cc(Br)c(O)c(C#N)c1 [Example 14, 3-bromo-5-(2-ethyl-6-fluoroimidazo[1,2-a]pyrimidine-3-carbonyl)-2-hydroxybenzonitrile] | 50 to 200 |
| CCn1nc2ccncc2c1C(=O)c1cc(Br)c(O)c(Br)c1 [Example 16, (3,5-dibromo-4-hydroxyphenyl)(2-ethyl-2H-pyrazolo[4,3-c]pyridin-3-yl)methanone] | < 50 |
| CCc1nc2ncc(F)cn2c1C(=O)c1cc(Br)c(O)c(C(F)(F)F)c1 [Example 18, (3-bromo-4-hydroxy-5-(trifluoromethyl)phenyl)(2-ethyl-6-fluoroimidazo[1,2-a]pyrimidin-3-yl)methanone] | < 50 |
| CCc1nc2ncccn2c1C(=O)c1cc(Br)c(O)c(C#N)c1 [Example 22, 3-bromo-5-(2-ethylimidazo[1,2-a]pyrimidine-3-carbonyl)-2-hydroxybenzonitrile] | 200 to 500 |

The remaining lines, values ahead:

| IC50 [nM] | Structure (SMILES) |
| --- | --- |
| < 50 | CCc1nc2ncc(Br)cn2c1C(=O)c1cc(Br)c(O)c(Br)c1 [Example 3, (6-bromo-2-ethylimidazo[1,2-a]pyrimidin-3-yl)(3,5-dibromo-4-hydroxyphenyl)methanone] |
| < 50 | CCc1nc2ncc(C(F)(F)F)cn2c1C(=O)c1cc(Br)c(O)c(Br)c1 [Example 5, (3,5-dibromo-4-hydroxyphenyl)(2-ethyl-6-(trifluoromethyl)imidazo[1,2-a]pyrimidin-3-yl)methanone] |
| < 50 | CCc1nc2ncc(Cl)cn2c1C(=O)c1cc(Br)c(O)c(Br)c1 [Example 6, (6-chloro-2-ethylimidazo[1,2-a]pyrimidin-3-yl)(3,5-dibromo-4-hydroxyphenyl)methanone] |
| 50 to 200 | CCc1nc2cc(C(F)(F)F)ncn2c1C(=O)c1cc(Br)c(O)c(Br)c1 [Example 7, (3,5-dibromo-4-hydroxyphenyl)(2-ethyl-7-(trifluoromethyl)imidazo[1,2-c]pyrimidin-3-yl)methanone] |
| < 50 | CCc1nc2ncccn2c1C(=O)c1cc(Br)c(O)c(Br)c1 [Example 20, 2,6-dibromo-4-([2-ethylimidazo[1,2-a]pyrimidin-3-yl]carbonyl) phenol] |
| < 50 | CCc1nc2cc(Cl)ncn2c1C(=O)c1cc(Br)c(O)c(Br)c1 [Example 21, (7-chloro-2-ethylimidazo[1,2-f]pyrimidin-3-yl)(3,5-dibromo-4-hydroxyphenyl)methanone] |
| 50 to 200 | CCc1nc2ncccn2c1C(=O)c1cc(Br)c(O)c(C(F)(F)F)c1 [Example 23, (3-bromo-4-hydroxy-5-(trifluoromethyl)phenyl)(2-ethylimidazo[1,2-a]pyrimidin-3-yl)methanone] |
